The compounds below were run against XIAP BIR3 (N-His-Tb-BIR3(241-356, XIAP)) (Homo sapiens (Human), UniProt P98170). Conditions: 130 nM N-His-Tb-BIR3(241-356, XIAP), 1.4 nM fluoresceinated modified SMAC peptide, 60 minutes room temperature; read-out: XIAP BIR3 FPA IC50.
Chain of XIAP BIR3 (N-His-Tb-BIR3(241-356, XIAP)) (P98170 241-356): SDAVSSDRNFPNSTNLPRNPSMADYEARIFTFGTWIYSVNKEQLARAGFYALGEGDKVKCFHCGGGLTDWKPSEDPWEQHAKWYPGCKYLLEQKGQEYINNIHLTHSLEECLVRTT
Assay type: binding
With `CN[C@@H](C)C(=O)N[C@H](C(=O)N1C[C@@H](NC(=O)n2ccc3cc(CN(C(=O)[C@@H]4Cc5ccccc5CN4C(=O)[C@@H](NC(=O)[C@H](C)NC)C(C)(C)C)C(COC)c4ccccc4)ccc32)C[C@H]1C(=O)N[C@@H]1CCCc2ccccc21)C(C)(C)C` (stereo in doubt) [Example 9, (S)-2-((S)-3,3-Dimethyl-2-((S)-2-(methylamino)propanamido)butanoyl)-N-((1-(((3S,5S)-1-((S)-3,3-dimethyl-2-((S)-2-(methylamino)propanamido)butanoyl)-5-(((R)-1,2,3,4-tetrahydronaphthalen-1-yl)carbamoyl)pyrrolidin-3-yl)carbamoyl)-1H-indol-5-yl)methyl)-N-((S)-2-methoxy-1-phenylethyl)-1,2,3,4-tetrahydroisoquinoline-3-carboxamide] the IC50 was 130 nM.
`CNC(C)C(=O)N[C@H](C(=O)N1C[C@@H](NC(=O)c2ccc(C(=O)N(C[C@@H]3Cc4ccccc4CN3C(=O)[C@@H](NC(=O)[C@H](C)NC)C(C)(C)C)[C@H](C)Cc3ccccc3F)cc2)C[C@H]1C(=O)N[C@@H]1CCCc2ccccc21)C(C)(C)C` (stereo in doubt) [Example 17, N^1-(((S)-2-((S)-3,3-dimethyl-2-((S)-2-(methylamino)propanamido)butanoyl)-1,2,3,4-tetra-hydroisoquinolin-3-yl)methyl)-N^4-((3S,5S)-1-((S)-3,3-dimethyl-2-((S)-2-(methyl-amino)propanamido)butanoyl)-5-(((R)-1,2,3,4-tetrahydro-naphthalen-1-yl)carbamoyl)pyrrolidin-3-yl)-N^1-((R)-1-(2-fluorophenyl)propan-2-yl) terephthalamide] gave an IC50 of 100 nM.
In the case of `CN[C@@H](C)C(=O)N[C@H](C(=O)N1CC(NC(=O)c2cccc(CN(C(=O)[C@@H]3Cc4ccccc4CN3C(=O)[C@@H](NC(=O)[C@H](C)NC)C(C)(C)C)C(COC)c3ccccc3)c2)C[C@H]1C(=O)NC1CCCc2ccccc21)C(C)(C)C` (stereo in doubt) [Example 39, (S)-2-((S)-3,3-Dimethyl-2-((S)-2-(methylamino)propanamido)butanoyl)-N-(3-(((3S,5S)-1-((S)-3,3-dimethyl-2-((S)-2-(methylamino)propanamido)butanoyl)-5-(((R)-1,2,3,4-tetrahydronaphthalen-1-yl)carbamoyl)pyrrolidin-3-yl)carbamoyl)benzyl)-N-((S)-2-methoxy-1-phenylethyl)-1,2,3,4-tetrahydroisoquinoline-3-carboxamide], the IC50 is reported as 80 nM.
Compound `CN[C@@H](C)C(=O)N[C@H](C(=O)N1C[C@@H](NC(=O)c2ccc(CN(CCc3ccccc3)C(=O)[C@@H]3Cc4ccccc4CN3C(=O)[C@@H](NC(=O)[C@H](C)NC)C(C)(C)C)cc2)C[C@H]1C(=O)N[C@@H]1CCCc2ccccc21)C(C)(C)C` [Example 2, (S)-2-((S)-3,3-Dimethyl-2-((S)-2-(methylamino)propanamido)butanoyl)-N-(4-(((3S,5S)-1-((S)-3,3-dimethyl-2-((S)-2-(methylamino)propanamido)butanoyl)-5-(((R)-1,2,3,4-tetrahydronaphthalen-1-yl)carbamoyl)pyrrolidin-3-yl)carbamoyl)benzyl)-N-phenethyl-1,2,3,4-tetrahydroisoquinoline-3-carboxamide] has an IC50 of 30 nM.
Compound `CN[C@@H](C)C(=O)N[C@H](C(=O)N1C[C@@H](NC(=O)c2ccc(CN(C(=O)[C@@H]3Cc4ccccc4CN3C(=O)[C@@H](NC(=O)[C@H](C)NC)C(C)(C)C)[C@H](C)c3cccc(OC)c3)cc2)C[C@H]1C(=O)N[C@@H]1CCCc2ccccc21)C(C)(C)C` [Example 3, (S)-2-((S)-3,3-Dimethyl-2-((S)-2-(methylamino)propanamido)butanoyl)-N-(4-(((3S,5S)-1-((S)-3,3-dimethyl-2-((S)-2-(methylamino)propanamido)butanoyl)-5-(((R)-1,2,3,4-tetrahydronaphthalen-1-yl)carbamoyl)pyrrolidin-3-yl)carbamoyl)benzyl)-N-((R)-1-(3-methoxyphenyl)ethyl)-1,2,3,4-tetrahydroisoquinoline-3-carboxamide] has an IC50 of 60 nM.
With `CN[C@@H](C)C(=O)N[C@H](C(=O)N1C[C@@H](NC(=O)c2ccc(CN(C(=O)[C@@H]3Cc4ccccc4CN3C(=O)[C@@H](NC(=O)[C@H](C)NC)C(C)(C)C)[C@H](C)c3ccc(F)cc3)cc2)C[C@H]1C(=O)N[C@@H]1CCCc2ccccc21)C(C)(C)C` [Example 4, (S)-2-((S)-3,3-Dimethyl-2-((S)-2-(methylamino)propanamido)butanoyl)-N-(4-(((3S,5S)-1-((S)-3,3-dimethyl-2-((S)-2-(methylamino)propanamido)butanoyl)-5-(((R)-1,2,3,4-tetrahydronaphthalen-1-yl)carbamoyl)pyrrolidin-3-yl)carbamoyl)benzyl)-N-((R)-1-(4-fluorophenyl)ethyl)-1,2,3,4-tetrahydroisoquinoline-3-carboxamide] the IC50 was 100 nM.
`CN[C@@H](C)C(=O)N[C@H](C(=O)N1C[C@@H](NC(=O)c2ccc(CN(C(=O)[C@@H]3Cc4ccccc4CN3C(=O)[C@@H](NC(=O)[C@H](C)NC)C(C)(C)C)[C@H](C)c3ccccc3Cl)cc2)C[C@H]1C(=O)N[C@@H]1CCCc2ccccc21)C(C)(C)C` [Example 5, (S)-N-((R)-1-(2-Chlorophenyl)ethyl)-2-((S)-3,3-dimethyl-2-((S)-2-(methylamino)propanamido)butanoyl)-N-(4-(((3S,5S)-1-((S)-3,3-dimethyl-2-((S)-2-(methylamino)propanamido)butanoyl)-5-(((R)-1,2,3,4-tetrahydronaphthalen-1-yl)carbamoyl)pyrrolidin-3-yl)carbamoyl)benzyl)-1,2,3,4-tetrahydroisoquinoline-3-carboxamide] was tested, and the IC50 was 220 nM.
Compound `CCC[C@H](c1ccccc1)N(Cc1ccc(C(=O)N[C@H]2C[C@@H](C(=O)N[C@@H]3CCCc4ccccc43)N(C(=O)[C@@H](NC(=O)[C@H](C)NC)C(C)(C)C)C2)cc1)C(=O)[C@@H]1Cc2ccccc2CN1C(=O)[C@@H](NC(=O)[C@H](C)NC)C(C)(C)C` [Example 7, (S)-2-((S)-3,3-Dimethyl-2-((S)-2-(methylamino)propanamido)butanoyl)-N-(4-(((3S,5S)-1-((S)-3,3-dimethyl-2-((S)-2-(methylamino)propanamido)butanoyl)-5-(((R)-1,2,3,4-tetrahydronaphthalen-1-yl)carbamoyl)pyrrolidin-3-yl)carbamoyl)benzyl)-N-((R)-1-phenylbutyl)-1,2,3,4-tetrahydroisoquinoline-3-carboxamide] has an IC50 of 190 nM.
For `CN[C@@H](C)C(=O)N[C@H](C(=O)N1Cc2ccccc2C[C@H]1CN(CCc1ccccc1)C(=O)c1ccc(C(=O)N[C@H]2C[C@@H](C(=O)N[C@@H]3CCCc4ccccc43)N(C(=O)[C@@H](NC(=O)[C@H](C)NC)C(C)(C)C)C2)cc1)C(C)(C)C` [Example 10, N^1-(((S)-2-((S)-3,3-Dimethyl-2-((S)-2-(methylamino)propanamido)butanoyl)-1,2,3,4-tetrahydroisoquinolin-3-yl)methyl)-N^4-((3S,5S)-1-((S)-3,3-dimethyl-2-((S)-2-(methylamino)propanamido)butanoyl)-5-(((R)-1,2,3,4-tetrahydronaphthalen-1-yl)carbamoyl)pyrrolidin-3-yl)-N^1-phenethylterephthalamide], the IC50 was 60 nM.
`CN[C@@H](C)C(=O)N[C@H](C(=O)N1C[C@@H](NC(=O)c2ccc(CN(Cc3cccc(Cl)c3Cl)C(=O)[C@@H]3Cc4ccccc4CN3C(=O)[C@@H](NC(=O)[C@H](C)NC)C(C)(C)C)cc2)C[C@H]1C(=O)N[C@@H]1CCCc2ccccc21)C(C)(C)C` [Example 11, (S)-N-(2,3-Dichlorobenzyl)-2-((S)-3,3-dimethyl-2-((S)-2-(methylamino)propanamido)butanoyl)-N-(4-(((3S,5S)-1-((S)-3,3-dimethyl-2-((S)-2-(methylamino)propanamido)butanoyl)-5-(((R)-1,2,3,4-tetrahydro-naphthalen-1-yl)carbamoyl)pyrrolidin-3-yl)carbamoyl)benzyl)-1,2,3,4-tetra-hydroisoquinoline-3-carboxamide] was tested, and the IC50 was 70 nM.
`CN[C@@H](C)C(=O)N[C@H](C(=O)N1C[C@@H](NC(=O)c2ccc(CN(CCc3ccc4ccccc4c3)C(=O)[C@@H]3Cc4ccccc4CN3C(=O)[C@@H](NC(=O)[C@H](C)NC)C(C)(C)C)cc2)C[C@H]1C(=O)N[C@@H]1CCCc2ccccc21)C(C)(C)C` [Example 12, (S)-2-((S)-3,3-Dimethyl-2-((S)-2-(methylamino)propanamido)butanoyl)-N-(4-(((3S,5S)-1-((S)-3,3-dimethyl-2-((S)-2-(methyl-amino)propanamido)butanoyl)-5-(((R)-1,2,3,4-tetrahydro-naphthalen-1-yl)carbamoyl)pyrrolidin-3-yl)carbamoyl)benzyl)-N-(2-(naphthalen-2-yl)ethyl)-1,2,3,4-tetrahydro-isoquinoline-3-carboxamide] gave an IC50 of 90 nM.
In the case of `CN[C@@H](C)C(=O)N[C@H](C(=O)N1C[C@@H](NC(=O)c2ccc(CN(Cc3ccccc3)C(=O)[C@@H]3Cc4ccccc4CN3C(=O)[C@@H](NC(=O)[C@H](C)NC)C(C)(C)C)cc2)C[C@H]1C(=O)N[C@@H]1CCCc2ccccc21)C(C)(C)C` [Example 13, (S)-N-Benzyl-2-((S)-3,3-dimethyl-2-((S)-2-(methylamino)propanamido)butanoyl)-N-(4-(((3S,5S)-1-((S)-3,3-dimethyl-2-((S)-2-(methylamino)propanamido)butanoyl)-5-(((R)-1,2,3,4-tetrahydro-naphthalen-1-yl)carbamoyl)pyrrolidin-3-yl)carbamoyl)benzyl)-1,2,3,4-tetra-hydroisoquinoline-3-carboxamide], the IC50 is reported as 40 nM.

Same assay, conditions: read-out: XIAP BIR3 FPA IC50
`CN[C@@H](C)C(=O)N[C@H](C(=O)N1CC(NC(=O)CN(C(=O)[C@@H]2Cc3ccccc3CN2C(=O)[C@@H](NC(=O)[C@H](C)NC)C(C)(C)C)C(COC)c2ccccc2)C[C@H]1C(=O)NC1CCCc2ccccc21)C(C)(C)C` (stereo in doubt) [Example 40, (S)-2-((S)-3,3-Dimethyl-2-((S)-2-(methylamino)propanamido)butanoyl)-N-(2-(((3S,5S)-1-((S)-3,3-dimethyl-2-((S)-2-(methylamino)propanamido)butanoyl)-5-(((R)-1,2,3,4-tetrahydronaphthalen-1-yl)carbamoyl)pyrrolidin-3-yl)amino)-2-oxoethyl)-N-((S)-2-methoxy-1-phenylethyl)-1,2,3,4-tetrahydroisoquinoline-3-carboxamide] showed an IC50 of 60 nM.

Reference: patent publication US9603889B2, “IAP antagonists” (BRISTOL-MYERS SQUIBB COMPANY, priority 2012, dated 2017)
